Entries after “also recorded” stand apart in the source; their conditions may differ.
How the values were obtained:
[1] = system: monosodium iodoacetate (MIA)-induced osteoarthritis; assay: MIA rat model, chronic oral b.i.d. dosing: tibial plateau cartilage erosion analysis; format: in vivo; settings: for Decreased Erosion Size (statistically significant decrease in size of area of joint erosion) / SDCES (Significant Decrease In Cartilage Erosion Severity), Ridit analysis: 28 days; for SDCES (Significant Decrease In Cartilage Erosion Severity), Ridit analysis: calcium salt
Description: In a particular experiment, monosodium iodoacetate (“MIA”) (1 mg/joint) was injected through the infrapatellar ligament of the right knee of anesthetized male, Wistar rats. The contralateral control knee was injected with 50 μL of physiologic saline. The change in hind paw weight distribution, as determined by use of an incapacitance tester, between the right (arthritic) and left (contralateral control) knees was utilized as an index of functional limitation in the arthritic knee. Limitations in joint function were determined on Days 7, 14, and 28 following induction of arthritis. Following sacrifice, erosion severity was determined on the tibial plateaus from the arthritic joint. Histological analysis was also conducted on these samples.
The ridit analysis was used to determine differences in overall erosion severity. This parameter takes into account both the erosion grade (0=no erosion, I=erosion extending into the superficial or middle layers, or II=deep layer erosion), and area (small, medium and large, quantified by dividing the area of the largest erosion in each score into thirds) simultaneously.
After administering CI-1027 b.i.d. for 4 weeks, the rats were euthanized by CO2 administration. The soft tissue was removed from the right (arthritic) leg, the joint was disarticulated, and the meniscus was carefully removed to expose the surface of the tibial plateau. The tibia was removed and placed in physiologic saline until erosion analysis was performed. Tibial plateau erosions were analyzed the same day as the sacrifice as follows. Each plateau was dipped in India ink for approximately 30 seconds to help define the erosions, rinsed in saline, and blotted on a paper towel. A stereomicroscope equipped with a digital camera was used to photograph each plateau. The tibial plateaus were photographed and graded separately by two ordinary skilled persons using the following system:
Grade I=erosion extending into the superficial or middle layers;
Grade II=deep layer erosion; no cartilage, sub-chondral bone exposed.
The photographs were transferred to a computer for image analysis using a Zeiss KS 300 Image Analysis System to determine the total erosion area for each grade, expressed in square millimeters (“mm^2”). A RIDIT analysis (see above) was used to determine differences in overall erosion severity. This analysis takes into account both the erosion grade and area (small, medium and large, quantified by dividing the area of the largest erosion in each score into thirds) simultaneously.

[2] = system: human recombinant IL-6/IL-6sR induced joint pain; assay: IL-6 with IL-6 soluble receptor induced joint pain in rat; format: in vivo
Description: It should be appreciated that in Biological Methods 1, 2, 4, and 5 below, hind paw weight bearing differentials between the paw of the limb having the control joint (in animals administered test compound vehicle only) and the paw of the limb having the contralateral test joint (in control or inducement animals administered test compound vehicle only and in treatment animals administered test compound dissolved in test compound vehicle) were determined using an incapacitance tester, model 2KG (Linton Instrumentation, Norfolk, United Kingdom). The incapacitance tester has a chamber on top with an outwardly sloping front wall that supports a rat's front limbs, and two weight sensing pads, one for each hind paw, that facilitates this determination. The hind paw weight bearing differentials were expressed in grams and calculated as follows: (the average weight in grams placed on the control limb minus the average weight in grams placed on the contralateral test limb for each of the inducement or treatment animals) minus (the average weight in grams placed on the control limb minus the average weight in grams placed on the contralateral test limb for each of the control animals). All results were statistically analyzed by comparing the average results for an induction or treatment group with the average result for its control group at the same time point using analysis of covariance (“ANCOVA”) followed by the Hoehberg's procedure and those with statistical significance had p<0.05 unless otherwise noted.
Human recombinant IL-6 (100 ng per rat; R&D Systems, Minneapolis, Minn.) was incubated at room temperature with human recombinant IL-6 soluble receptor (300 ng per rat; R&D Systems, Minneapolis, Minn.) in phosphate buffered saline (“PBS”) for 15 minutes prior to injection. Rats were anesthetized with 5% volume/volume (“v/v”) isoflurane gas and maintained with 2% v/v isoflurane gas. The anesthetized rats were given a single intra-articular injection of IL-6/WL-6sR through the infrapatellar ligament of the right knee in a volume of 50 μL. The contralateral control knee was injected with 50 μL of PBS. Administration of isoflurane gas was discontinued, and the rats became fully conscious about 5 minutes later.
Shifts in hind paw weight distribution from the right (arthritic) to the left (contralateral control) paws were utilized as an index of joint pain and as a measure of compound efficacy. An incapacitance tester (Model 2KG, Linton Instrumentation, UK) was employed for determination of hind paw weight distribution. Each data point is the mean of three, 5-second readings.
CI-1027 was dissolved in BPMC vehicle as described above. Baseline changes in hind paw weight distribution readings were determined one day prior to injection of IL-6/IL-6sR. On the day of the experiment (Day 0), a single dose of CI-1027 (10, 30 or 100 mg/kg) was given via oral gavage 3 hours prior to injection of IL-6/IL-6sR (n=10 rats per group). Changes in hind paw weight distribution were determined one, three, and six hours after injection of IL-6/IL-6sR.
In Table 4 below, data from the method of Biological Method 5 are expressed as a percent inhibition of a change in hind paw weight distribution ± the standard error of the mean. The percents inhibition were calculated as follows. Percent inhibition of a change in hind paw weight distribution [formula] wherein: ΔWC is the hind-paw weight differential between the healthy limb and the hrIL-6+ hrIL-6sR injected limb of the control animal group administered vehicle alone, as measured at time 1, 3, or 6 hours post injection; and
ΔWG is the hind-paw weight differential between the healthy limb and the hrIL-6+ hrIL-6sR injected limb of a treatment animal group as measured at time 1, 3, or 6 hours post injection.

[3] = 30 mg/kg PO BID, dose-response experiment

CC(C)(CCCCOCCCCC(C)(C)C(=O)[O-])C(=O)[O-].[Ca+2] [CI-1027, 6-(5-carboxy-5-methyl-hexyloxy)-2,2-dimethyl-hexanoic acid, calcium salt]
Decreased Erosion Size (statistically significant decrease in size of area of joint erosion) ([1]; 3 mg/kg PO BID): No | SDCES (Significant Decrease In Cartilage Erosion Severity), Ridit analysis ([1]; 3 mg/kg PO BID): statistically significant inhibitory effect; also recorded: Yes^f | Decreased Erosion Size (statistically significant decrease in size of area of joint erosion) ([1]; 10 mg/kg PO BID): Yes^c | SDCES (Significant Decrease In Cartilage Erosion Severity), Ridit analysis ([1]; 10 mg/kg PO BID): significantly decrease cartilage erosion severity; also recorded: statistically significant inhibitory effect; also recorded: Yes^e | decrease in total erosion area (regardless of grade) ([1]; 10 mg/kg PO b.i.d. 28 days, dose-response experiment (FIG. 5), statistically significant): 62.4% | Decreased Erosion Size (statistically significant decrease in size of area of joint erosion) [1, 3]: No | SDCES (Significant Decrease In Cartilage Erosion Severity), Ridit analysis [1, 3]: significantly decrease cartilage erosion severity; also recorded: significantly decreased the degree of structural damage to the cartilage; also recorded: statistically significant inhibitory effect; also recorded: Yes^d | Decreased Erosion Size (statistically significant decrease in size of area of joint erosion) ([1]; 30 mg/kg PO BID, single-dose-level experiment): No | SDCES (Significant Decrease In Cartilage Erosion Severity), Ridit analysis ([1]; 30 mg/kg PO BID, single-dose-level experiment (p = 0.100)): no statistically significant effect and No^g | treated rats with no erosions ([1]; 30 mg/kg PO b.i.d. 28 days, first experiment, N=12): 5 of the 12 | decrease in total erosion area (regardless of grade) ([1]; 30 mg/kg PO b.i.d. 28 days, first experiment, not statistically significant (p=0.179)): 43% | inhibition of change in hind paw weight distribution ([2]; 10 mg/kg PO 3 hours before IL-6/IL-6sR injection, 1 hour post injection (FIG. 6)): 53±9% | inhibition of change in hind paw weight distribution ([2]; 10 mg/kg PO 3 hours before injection, repeat experiment, blinded readings (FIG. 7)): 63±6% | inhibition of change in hind paw weight distribution ([2]; 30 mg/kg PO 3 hours before IL-6/IL-6sR injection, 1 hour post injection (FIG. 6)): 74±8% | inhibition of change in hind paw weight distribution ([2]; 30 mg/kg PO 3 hours before injection, repeat experiment, blinded readings (FIG. 7)): 71±10% | inhibition of change in hind paw weight distribution ([2]; 100 mg/kg PO 3 hours before IL-6/IL-6sR injection, 1 hour post injection (FIG. 6)): 57±15% | change in hind paw weight distribution ([2]; 10, 30, 100 mg/kg PO, 3 and 6 hours post injection (6 and 9 hours post administration)): No significant effect | Inhibition of Pain (% versus control), IL-6 ([2]; single oral dose 30 mg/kg on Day 1, 4 hours post dose): 71 ± 10%
